According to ChEMBL document CHEMBL3885881, “DrugMatrix”:

Species on record: Rattus norvegicus
Test: DrugMatrix - Regimen: Daily Repeat
Format: toxicity, organism-based, Sprague-Dawley
Set-up: regimen Daily Repeat, gender Male, age 6-8 weeks
Conditions: in vivo, po, route oral GAVAGE, vehicle .5 % CMC; for ABSOLUTE BASOPHIL / ABSOLUTE EOSINOPHIL / ABSOLUTE LYMPHOCYTE / ABSOLUTE MONOCYTE / ABSOLUTE SEGMENTED NEUTROPHIL / BASOPHIL / EOSINOPHIL / ERYTHROCYTE COUNT / HEMATOCRIT / HEMOGLOBIN / LEUKOCYTE COUNT / LYMPHOCYTE / MEAN CORPUSCULAR HEMOGLOBIN / MEAN CORPUSCULAR HEMOGLOBIN CONCENTRATION / MEAN CORPUSCULAR VOLUME / MONOCYTE / NEUTROPHIL / NUCLEATED RED BLOOD CELLS / PLATELET COUNT: tissue Blood; for ALANINE AMINOTRANSFERASE / ALBUMIN / ALKALINE PHOSPHATASE / ASPARTATE AMINOTRANSFERASE / BLOOD UREA NITROGEN / CARBON DIOXIDE / CHLORIDE / CHOLESTEROL / CREATINE PHOSPHOKINASE / CREATININE / GLUCOSE / LACTATE DEHYDROGENASE / LIPASE / PHOSPHORUS / POTASSIUM / SODIUM / TOTAL BILIRUBIN / TOTAL PROTEIN / URIC ACID: tissue Plasma
[1] = 0 mg/kg, 72 h, dose level Control, time 3 day
[2] = 0 mg/kg, 120 h, dose level Control, time 5 day
[3] = 20 mg/kg, 72 h, dose level Low, time 3 day

NC(=O)N1c2ccccc2CC(=O)c2ccccc21 [OXCARBAZEPINE]
ABSOLUTE BASOPHIL [1]: 0 CELLS/uL
ABSOLUTE EOSINOPHIL [1]: 0 CELLS/uL
ABSOLUTE LYMPHOCYTE [1]: 12269.67 CELLS/uL
ABSOLUTE MONOCYTE [1]: 160.33 CELLS/uL
ABSOLUTE SEGMENTED NEUTROPHIL [1]: 970 CELLS/uL
BASOPHIL [1]: 0%
EOSINOPHIL [1]: 0%
ERYTHROCYTE COUNT [1]: 5.76 x10E6/uL
HEMATOCRIT [1]: 36.57%
HEMOGLOBIN [1]: 14.22 G/DL
LEUKOCYTE COUNT [1]: 13.4 x10E3/uL
LYMPHOCYTE [1]: 91.67%
MEAN CORPUSCULAR HEMOGLOBIN [1]: 24.67 pg
MEAN CORPUSCULAR HEMOGLOBIN CONCENTRATION [1]: 38.85 G/DL
MEAN CORPUSCULAR VOLUME [1]: 63.52 fL
MONOCYTE [1]: 1.17%
NEUTROPHIL [1]: 7.17%
NUCLEATED RED BLOOD CELLS [1]: 0.33 /100WBC
PLATELET COUNT [1]: 1250.83 x10E3/uL
ALANINE AMINOTRANSFERASE [1]: 49.17 u/L
ALBUMIN [1]: 4.33 G/DL
ALKALINE PHOSPHATASE [1]: 378.5 u/L
ASPARTATE AMINOTRANSFERASE [1]: 82.17 u/L
BLOOD UREA NITROGEN [1]: 15 mg/dL
CARBON DIOXIDE [1]: 34.33 mmol/L
CHLORIDE [1]: 99.17 MEQ/L
CHOLESTEROL [1]: 71.17 mg/dL
CREATINE PHOSPHOKINASE [1]: 258.67 u/L
CREATININE [1]: 0.18 mg/dL
GLUCOSE [1]: 142.67 mg/dL
LACTATE DEHYDROGENASE [1]: 154.33 u/L
LIPASE [1]: 9 u/L
PHOSPHORUS [1]: 11.67 mg/dL
POTASSIUM [1]: 7.13 MEQ/L
SODIUM [1]: 142.22 MEQ/L
TOTAL BILIRUBIN [1]: 0.18 mg/dL
TOTAL PROTEIN [1]: 5.77 G/DL
URIC ACID [1]: 1.55 mg/dL
ABSOLUTE BASOPHIL [2]: 0 CELLS/uL
ABSOLUTE EOSINOPHIL [2]: 23.33 CELLS/uL
ABSOLUTE LYMPHOCYTE [2]: 14943.67 CELLS/uL
ABSOLUTE MONOCYTE [2]: 32 CELLS/uL
ABSOLUTE SEGMENTED NEUTROPHIL [2]: 1084.33 CELLS/uL
BASOPHIL [2]: 0%
EOSINOPHIL [2]: 0.17%
ERYTHROCYTE COUNT [2]: 5.71 x10E6/uL
HEMATOCRIT [2]: 35.28%
HEMOGLOBIN [2]: 14.27 G/DL
LEUKOCYTE COUNT [2]: 16.08 x10E3/uL
LYMPHOCYTE [2]: 93%
MEAN CORPUSCULAR HEMOGLOBIN [2]: 25.02 pg
MEAN CORPUSCULAR HEMOGLOBIN CONCENTRATION [2]: 40.43 G/DL
MEAN CORPUSCULAR VOLUME [2]: 61.82 fL
MONOCYTE [2]: 0.17%
NEUTROPHIL [2]: 6.67%
NUCLEATED RED BLOOD CELLS [2]: 0.33 /100WBC
PLATELET COUNT [2]: 1274 x10E3/uL
ALANINE AMINOTRANSFERASE [2]: 54.17 u/L
ALBUMIN [2]: 4.22 G/DL
ALKALINE PHOSPHATASE [2]: 373.17 u/L
ASPARTATE AMINOTRANSFERASE [2]: 81.83 u/L
BLOOD UREA NITROGEN [2]: 16.67 mg/dL
CARBON DIOXIDE [2]: 30.33 mmol/L
CHLORIDE [2]: 99 MEQ/L
CHOLESTEROL [2]: 71 mg/dL
CREATINE PHOSPHOKINASE [2]: 273.5 u/L
CREATININE [2]: 0.22 mg/dL
GLUCOSE [2]: 141.83 mg/dL
LACTATE DEHYDROGENASE [2]: 153.67 u/L
LIPASE [2]: 10.33 u/L
PHOSPHORUS [2]: 11.38 mg/dL
POTASSIUM [2]: 7.08 MEQ/L
SODIUM [2]: 142.75 MEQ/L
TOTAL BILIRUBIN [2]: 0.18 mg/dL
TOTAL PROTEIN [2]: 6.1 G/DL
URIC ACID [2]: 1.67 mg/dL
ABSOLUTE BASOPHIL [3]: 0 CELLS/uL
ABSOLUTE EOSINOPHIL [3]: 39.67 CELLS/uL
ABSOLUTE LYMPHOCYTE [3]: 12910 CELLS/uL
ABSOLUTE MONOCYTE [3]: 169.33 CELLS/uL
ABSOLUTE SEGMENTED NEUTROPHIL [3]: 1314.33 CELLS/uL
BASOPHIL [3]: 0%
EOSINOPHIL [3]: 0.33%
ERYTHROCYTE COUNT [3]: 5.51 x10E6/uL
HEMATOCRIT [3]: 35.53%
HEMOGLOBIN [3]: 14 G/DL
LEUKOCYTE COUNT [3]: 14.43 x10E3/uL
LYMPHOCYTE [3]: 90%
MEAN CORPUSCULAR HEMOGLOBIN [3]: 25.43 pg
MEAN CORPUSCULAR HEMOGLOBIN CONCENTRATION [3]: 39.43 G/DL
MEAN CORPUSCULAR VOLUME [3]: 64.5 fL
MONOCYTE [3]: 1.33%
NEUTROPHIL [3]: 8.33%
NUCLEATED RED BLOOD CELLS [3]: 0.33 /100WBC
PLATELET COUNT [3]: 1357.67 x10E3/uL
ALANINE AMINOTRANSFERASE [3]: 55.67 u/L
ALBUMIN [3]: 4.33 G/DL
ALKALINE PHOSPHATASE [3]: 378.33 u/L
ASPARTATE AMINOTRANSFERASE [3]: 87.67 u/L
BLOOD UREA NITROGEN [3]: 12.67 mg/dL
CARBON DIOXIDE [3]: 27.33 mmol/L
CHLORIDE [3]: 103 MEQ/L
CHOLESTEROL [3]: 73.33 mg/dL
CREATINE PHOSPHOKINASE [3]: 333.33 u/L
CREATININE [3]: 0.24 mg/dL
GLUCOSE [3]: 150.67 mg/dL
LACTATE DEHYDROGENASE [3]: 316 u/L
LIPASE [3]: 10 u/L
PHOSPHORUS [3]: 13.2 mg/dL
POTASSIUM [3]: 7.12 MEQ/L
SODIUM [3]: 146.57 MEQ/L
TOTAL BILIRUBIN [3]: 0.2 mg/dL
TOTAL PROTEIN [3]: 5.93 G/DL
URIC ACID [3]: 2.37 mg/dL
